The source made the active and inactive calls. The rule behind the calls is not given here.
Experiments:
Tubulin (Homo sapiens) [1] = target: T1, Tubulin (Homo sapiens) (UniProt P68371+Q9H4B7+P0DPH7+P68366+Q13509+Q71U36+P04350+Q3ZCM7+P07437+P68363+Q9BQE3+Q6PEY2+Q13885+Q9BVA1+Q9BUF5); test: Induction of paclitaxel mediated tubulin […] in human MCF7ADR cells assessed as appearance of filamentous microtubules at 10 uM incubated for 72 hrs in presence of paclitaxel; format: cell-based; conditions: filed as activator
NCI/ADR-RES [2] = test: Induction of apoptosis in human MCF7ADR cells assessed as viable cells at 10 uM by Annexin V-FITC and propidium iodide staining based flow cytometry analysis (reference value: 85.75%); format: functional; conditions: read-out: Activity
NCI/ADR-RES [3] = test: Induction of apoptosis in human MCF7ADR cells assessed as early apoptotic cells at 10 uM by Annexin V-FITC and propidium iodide staining based flow cytometry analysis (reference value: 3.87%); format: functional
NCI/ADR-RES [4] = test: Induction of paclitaxel mediated apoptosis in human MCF7ADR cells assessed as necrotic cells at 10 uM in presence of paclitaxel by Annexin V-FITC and propidium iodide staining based flow cytometry analysis (reference value: 3.14%); format: functional
NCI/ADR-RES [5] = test: Induction of paclitaxel mediated DNA damage in human MCF7ADR cells at 10 uM in presence of paclitaxel by comet assay; format: functional, cell-based
NCI/ADR-RES [6] = test: Induction of paclitaxel mediated apoptosis in human MCF7ADR cells assessed as nuclear fragmentation at 10 uM in presence of paclitaxel by DAPI staining based assay; format: functional, cell-based
[7] = Cytotoxicity against HEK293T cells assessed as cell viability at 10 uM; format: toxicity, cell-based, HEK-293T; conditions: human, read-out: Activity
[8] = Cytotoxicity against human GES1 cells assessed as cell viability at 10 uM; format: toxicity, cell-based; conditions: read-out: Activity
NCI/ADR-RES [9] = test: Reversal of paclitaxel resistance in human MCF7ADR cells assessed as reversal fold by measuring ratio of paclitaxel IC50 to paclitaxel IC50 in presence of test compound at 5 uM incubated for 72 hrs by MTT assay; format: functional
MCF7 [10] = test: Antiproliferative activity against human MCF7 cells assessed as survival rate at 5 uM incubated for 72 hrs by MTT assay; format: functional; conditions: read-out: Survival
NCI/ADR-RES [11] = test: Induction of DNA damage in human MCF7ADR cells at 10 uM by comet assay; format: functional, cell-based
MCF7 [12] = test: Antiproliferative activity against human MCF7 cells incubated for 72 hrs by MTT assay; format: functional, cell-based; conditions: MCF7, 72 h
NCI/ADR-RES [13] = test: Antiproliferative activity against human MCF7ADR cells assessed as survival rate at 5 uM incubated for 72 hrs by MTT assay; format: functional; conditions: read-out: Survival
NCI/ADR-RES [14] = test: Antiproliferative activity against human MCF7ADR cells incubated for 72 hrs by MTT assay; format: functional, cell-based
Tubulin (Homo sapiens) [15] = target: T1, Tubulin (Homo sapiens); test: Inhibition of tubulin depolymerization in human MCF7ADR cells assessed as change in microtubule morphology at 10 uM incubated for 72 hrs; format: cell-based
NCI/ADR-RES [16] = test: Synergistic antiproliferative activity against human MCF7ADR cells assessed as combination index at 10 uM in presence of PTX; format: functional
NCI/ADR-RES [17] = test: Effect on subcellular localization of ABCB1 in human MCF7ADR cells at 10 uM incubated for 48 hrs by DAPI staining based assay; format: functional, cell-based
NCI/ADR-RES [18] = test: Induction of apoptosis in human MCF7ADR cells assessed as necrotic cells at 10 uM by Annexin V-FITC and propidium iodide staining based flow cytometry analysis (reference value: 3.14%); format: functional
NCI/ADR-RES [19] = test: Reversal of paclitaxel resistance in human MCF7ADR cells assessed as reversal fold by measuring ratio of paclitaxel IC50 to paclitaxel IC50 in presence of test compound at 10 uM incubated for 72 hrs by MTT assay; format: functional
NCI/ADR-RES [20] = test: Induction of cell cycle arrest in human MCF7ADR cells assessed as accumulation of cells at G2/M phase at 10 uM in presence of paclitaxel by propidium iodide staining based flow cytometry analysis; format: functional
NCI/ADR-RES [21] = test: Induction of DNA damage in human MCF7ADR cells at 10 nM by comet assay; format: functional, cell-based
NCI/ADR-RES [22] = test: Induction of paclitaxel mediated apoptosis in human MCF7ADR cells assessed as late apoptotic cells at 10 uM in presence of paclitaxel by Annexin V-FITC and propidium iodide staining based flow cytometry analysis (reference value: 7.24%); format: functional
[23] = target: T2, ATP-dependent translocase ABCB1 (Homo sapiens, UniProt P08183); test: Binding affinity to ABCB1 (unknown origin) assessed as change in thermal stability at 200 uM by CETSA
T2 sequence (P08183 whole entry): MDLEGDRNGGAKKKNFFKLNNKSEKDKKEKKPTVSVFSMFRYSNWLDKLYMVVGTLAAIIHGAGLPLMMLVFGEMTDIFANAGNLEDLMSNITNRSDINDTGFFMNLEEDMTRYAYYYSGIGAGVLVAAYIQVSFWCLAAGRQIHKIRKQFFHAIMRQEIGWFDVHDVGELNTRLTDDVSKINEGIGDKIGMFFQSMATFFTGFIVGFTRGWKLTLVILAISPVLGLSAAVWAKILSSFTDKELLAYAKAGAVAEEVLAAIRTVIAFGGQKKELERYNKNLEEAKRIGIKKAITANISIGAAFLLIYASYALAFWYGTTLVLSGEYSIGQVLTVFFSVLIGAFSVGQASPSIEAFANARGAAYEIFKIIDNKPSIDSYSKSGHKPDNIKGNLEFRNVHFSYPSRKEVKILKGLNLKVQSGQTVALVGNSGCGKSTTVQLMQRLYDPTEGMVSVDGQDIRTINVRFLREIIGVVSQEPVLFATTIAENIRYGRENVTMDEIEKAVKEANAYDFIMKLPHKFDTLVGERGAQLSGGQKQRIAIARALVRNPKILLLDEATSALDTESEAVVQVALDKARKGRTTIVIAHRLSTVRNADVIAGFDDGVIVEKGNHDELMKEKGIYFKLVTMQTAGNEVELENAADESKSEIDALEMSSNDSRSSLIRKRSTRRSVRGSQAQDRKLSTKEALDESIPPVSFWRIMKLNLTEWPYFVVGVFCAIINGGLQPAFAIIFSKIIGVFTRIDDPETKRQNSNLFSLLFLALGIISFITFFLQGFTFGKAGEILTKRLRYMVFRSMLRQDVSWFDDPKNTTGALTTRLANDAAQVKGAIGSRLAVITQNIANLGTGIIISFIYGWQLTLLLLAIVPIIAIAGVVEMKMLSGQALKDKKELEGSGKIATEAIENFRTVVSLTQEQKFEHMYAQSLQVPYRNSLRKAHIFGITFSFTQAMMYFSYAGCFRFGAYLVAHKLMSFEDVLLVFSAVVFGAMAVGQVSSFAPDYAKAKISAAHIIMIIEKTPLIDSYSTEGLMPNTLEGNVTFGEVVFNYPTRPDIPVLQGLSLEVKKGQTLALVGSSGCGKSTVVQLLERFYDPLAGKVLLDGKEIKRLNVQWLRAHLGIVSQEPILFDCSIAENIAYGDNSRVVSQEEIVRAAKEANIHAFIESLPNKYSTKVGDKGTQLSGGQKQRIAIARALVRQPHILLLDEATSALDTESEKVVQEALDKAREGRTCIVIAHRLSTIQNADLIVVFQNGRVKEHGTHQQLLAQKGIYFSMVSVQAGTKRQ

MCF7 [24] = test: Reversal of paclitaxel resistance in human MCF7 cells assessed as reversal fold by measuring ratio of paclitaxel IC50 to paclitaxel IC50 in presence of test compound at 5 uM incubated for 72 hrs by MTT assay; format: functional
NCI/ADR-RES [25] = test: Induction of paclitaxel mediated apoptosis in human MCF7ADR cells assessed as early apoptotic cells at 10 uM in presence of paclitaxel by Annexin V-FITC and propidium iodide staining based flow cytometry analysis (reference value: 3.87%); format: functional
Tubulin (Homo sapiens) [26] = target: T1, Tubulin (Homo sapiens); test: Induction of paclitaxel mediated tubulin […] in human MCF7ADR cells assessed as appearance of cellular multinucleation at 10 uM incubated for 72 hrs in presence of paclitaxel; format: cell-based; conditions: filed as activator
MCF7 [27] = test: Reversal of paclitaxel resistance in human MCF7 cells assessed as reduction in paclitaxel IC50 at 5 uM pretreated with compound for 4 hrs followed by paclitaxel addition and measured after 72 hrs by MTT assay (reference value: 2.60 +/- 0.36 nM); format: functional, cell-based
NCI/ADR-RES [28] = test: Reversal of paclitaxel resistance in human MCF7ADR cells assessed as reduction in paclitaxel IC50 at 10 uM pretreated with compound for 4 hrs followed by paclitaxel addition and measured after 72 hrs by MTT assay (reference value: 6.68 +/- 0.35 microM); format: functional, cell-based
MCF7 [29] = test: Reversal of paclitaxel resistance in human MCF7 cells; format: functional, cell-based
NCI/ADR-RES [30] = test: Induction of paclitaxel mediated apoptosis in human MCF7ADR cells assessed as reduction in nuclei size at 10 uM in presence of paclitaxel by DAPI staining based assay; format: functional, cell-based
NCI/ADR-RES [31] = test: Effect on ABCB1 expression in human MCF7ADR cells upto 15 uM by Western blotting analysis; format: functional, cell-based
NCI/ADR-RES [32] = test: Induction of paclitaxel mediated apoptosis in human MCF7ADR cells assessed as viable cells at 10 uM in presence of paclitaxel by Annexin V-FITC and propidium iodide staining based flow cytometry analysis (reference value: 85.75%); format: functional; conditions: read-out: Activity
NCI/ADR-RES [33] = test: Inhibition of colony formation in human MCF7ADR cells at 10 uM incubated for 7 days in presence of paclitaxel by crystal violet staining based assay; format: functional, cell-based; conditions: time 7.0 day
NCI/ADR-RES [34] = test: Reversal of paclitaxel resistance in human MCF7ADR cells assessed as reduction in paclitaxel IC50 at 5 uM pretreated with compound for 4 hrs followed by paclitaxel addition and measured after 72 hrs by MTT assay (reference value: 6.68 +/- 0.35 microM); format: functional, cell-based
[35] = target: T2, ATP-dependent translocase ABCB1; test: Binding affinity to ABCB1 (unknown origin) assessed as reduction in protein hydrolysis at 10 to 100 uM incubated for 1 hr followed by alkaline protease addition and measured after 15 mins by Western blotting analysis; conditions: 1.25 h, dose 10-100 µM, time 75 min
NCI/ADR-RES [36] = test: Reversal of paclitaxel resistance in human MCF7ADR cells at 10 uM; format: functional, cell-based
NCI/ADR-RES [37] = test: Inhibition of cell proliferation in human MCF7ADR cells assessed as reduction in cellular proliferation cells at 10 uM in presence of paclitaxel by EdU staining based assay; format: functional
MCF7 [38] = test: Reversal of paclitaxel resistance in human MCF7 cells assessed as reduction in paclitaxel IC50 at 10 uM pretreated with compound for 4 hrs followed by paclitaxel addition and measured after 72 hrs by MTT assay (reference value: 2.60 +/- 0.36 nM); format: functional, cell-based
NCI/ADR-RES [39] = test: Induction of apoptosis in human MCF7ADR cells assessed as late apoptotic cells at 10 uM by Annexin V-FITC and propidium iodide staining based flow cytometry analysis (reference value: 7.24%); format: functional
[40] = Cytotoxicity against HUVECs assessed as cell viability at 10 uM; format: toxicity, cell-based; conditions: human, HUVEC cells, read-out: Activity
MCF7 [41] = test: Reversal of paclitaxel resistance in human MCF7 cells assessed as reversal fold by measuring ratio of paclitaxel IC50 to paclitaxel IC50 in presence of test compound at 10 uM incubated for 72 hrs by MTT assay; format: functional
Tubulin (Homo sapiens) [42] = target: T1, Tubulin (Homo sapiens); test: Inhibition of tubulin depolymerization in human MCF7ADR cells assessed as change in microtubule morphology at 10 nM incubated for 72 hrs; format: cell-based
NCI/ADR-RES [43] = test: Induction of apoptosis in human MCF7ADR cells assessed as early apoptotic cells at 10 nM by Annexin V-FITC and propidium iodide staining based flow cytometry analysis (reference value: 3.87%); format: functional
NCI/ADR-RES [44] = test: Induction of apoptosis in human MCF7ADR cells assessed as late apoptotic cells at 10 nM by Annexin V-FITC and propidium iodide staining based flow cytometry analysis (reference value: 7.24%); format: functional
NCI/ADR-RES [45] = test: Induction of apoptosis in human MCF7ADR cells assessed as viable cells at 10 nM by Annexin V-FITC and propidium iodide staining based flow cytometry analysis (reference value: 85.75%); format: functional; conditions: read-out: Activity
NCI/ADR-RES [46] = test: Induction of apoptosis in human MCF7ADR cells assessed as necrotic cells at 10 nM by Annexin V-FITC and propidium iodide staining based flow cytometry analysis (reference value: 3.14%); format: functional

COc1cc(-c2c(C)nc3cc(-c4cccs4)nn3c2-c2cc(OC)c(OC)c(OC)c2)cc(OC)c1OC
Activity (Tubulin (Homo sapiens) [1]): Active | viability at 10 µM (NCI/ADR-RES [2]): 84.4% | Activity (NCI/ADR-RES [3]): 6.17% | Activity (NCI/ADR-RES [4]): 4.28% | Activity (NCI/ADR-RES [5]): Active | Activity (NCI/ADR-RES [6]): Active | viability at 10 µM [7]: > 80% | viability at 10 µM [8]: > 80% | Ratio (NCI/ADR-RES [9]): 247.4 | viability at 5 µM (MCF7 [10]): 97.7% | Activity (NCI/ADR-RES [11]): Active | IC50 (MCF7 [12]): > 20000 nM | viability at 5 µM (NCI/ADR-RES [13]): 95% | IC50 (NCI/ADR-RES [14]): > 20000 nM | inhibition (Tubulin (Homo sapiens) [15]): inactive | CI (NCI/ADR-RES [16]): 0.09 | Activity (NCI/ADR-RES [17]): inactive | Activity (NCI/ADR-RES [18]): 1.44% | Ratio (NCI/ADR-RES [19]): 663.44 | Activity (NCI/ADR-RES [20]): Active | Activity (NCI/ADR-RES [21]): Active | Activity (NCI/ADR-RES [22]): 29.54% | Activity [23]: Active | Ratio (MCF7 [24]): 0.88 | Activity (NCI/ADR-RES [25]): 13.87% | Activity (Tubulin (Homo sapiens) [26]): Active | IC50 (MCF7 [27]): 2.96 nM | IC50 (NCI/ADR-RES [28]): 10.1 nM | Activity (MCF7 [29]): inactive | Activity (NCI/ADR-RES [30]): Active | Activity (NCI/ADR-RES [31]): inactive | viability at 10 µM (NCI/ADR-RES [32]): 52.3% | inhibition (NCI/ADR-RES [33]): Active | IC50 (NCI/ADR-RES [34]): 27 nM | Activity [35]: Active | Activity (NCI/ADR-RES [36]): Active | inhibition (NCI/ADR-RES [37]): Active | IC50 (MCF7 [38]): 2.65 nM | Activity (NCI/ADR-RES [39]): 7.98% | viability at 10 µM [40]: > 80% | Ratio (MCF7 [41]): 0.98

CC(=O)O[C@H]1C(=O)[C@@]2(C)[C@H]([C@H](OC(=O)c3ccccc3)[C@]3(O)C[C@H](OC(=O)[C@H](O)[C@@H](NC(=O)c4ccccc4)c4ccccc4)C(C)=C1C3(C)C)[C@]1(OC(C)=O)CO[C@@H]1C[C@@H]2O [PACLITAXEL]
inhibition (Tubulin (Homo sapiens) [42]): inactive | Activity (NCI/ADR-RES [43]): 4.93% | Activity (NCI/ADR-RES [44]): 6.48% | viability at 0.01 µM (NCI/ADR-RES [45]): 86.2% | Activity (NCI/ADR-RES [46]): 2.4%

COc1ccc(CCN(C)CCCC(C#N)(c2ccc(OC)c(OC)c2)C(C)C)cc1OC (stereo not drawn) [VERAPAMIL]
Ratio (NCI/ADR-RES [9]): 39.29 | viability at 5 µM (MCF7 [10]): > 99% | IC50 (MCF7 [12]): > 20000 nM | viability at 5 µM (NCI/ADR-RES [13]): > 99% | IC50 (NCI/ADR-RES [14]): > 20000 nM | Ratio (NCI/ADR-RES [19]): 96.11 | Ratio (MCF7 [24]): 2.55 | IC50 (MCF7 [27]): 1.02 nM | IC50 (NCI/ADR-RES [28]): 69.5 nM | IC50 (NCI/ADR-RES [34]): 170 nM | IC50 (MCF7 [38]): 2.68 nM | Ratio (MCF7 [41]): 0.97
